ChEMBL document CHEMBL6134863, “Novel Mitochondria-Targeted Asymmetric Heptamethine Cyanine Dye for Cancer Targeted NIR Imaging and Potent Necrosis and Senescence Induction with Prolonged Retention” (J Med Chem, 2025)
Activity calls are given as the source filed them.

Tests used:
[1] = Solubility of compound in DMSO-H2O; assay type: physicochemical
[2] = Partition coefficient, logP of compound; assay type: physicochemical; settings: octanol/water
[3] = Distribution coefficient, logD of compound; assay type: physicochemical; settings: octanol/water
[4] = Drug accumulation in tumor to muscle of BALB/c mouse implanted with mouse 4T1 cells at 0.5 mg/kg, iv measured at 4 to 168 hrs; assay type: ADME, organism-based; settings: in vivo, time 4-168 hrs
[5] = Ratio of drug level in tumor to muscle of BALB/c mouse implanted with mouse 4T1 cells at 0.5 mg/kg, iv measured at 12 to 24 hrs; assay type: ADME, organism-based; settings: in vivo, time 12-24 hrs
[6] = Drug uptake in human NCI-H226 cells assessed as increase in red fluorescence intensity at 5 uM incubated for 30 mins by CY7 staining based microscopic analysis; assay type: ADME, cell-based; settings: nci-h226, 0.5 h
[7] = Drug uptake in human NCI-H226 cells assessed as increase in green fluorescence intensity at 5 uM incubated for 30 mins by F-actin staining staining based microscopic analysis; assay type: ADME, cell-based; settings: nci-h226, 0.5 h
[8] = Drug uptake in mouse 4T1 cells assessed as increase in red fluorescence intensity at 5 uM incubated for 30 mins by CY7 staining based microscopic analysis; assay type: ADME, cell-based; settings: 4t1, 0.5 h
[9] = Drug uptake in mouse 4T1 cells assessed as increase in green fluorescence intensity at 5 uM incubated for 30 mins by F-actin staining staining based microscopic analysis; assay type: ADME, cell-based; settings: 4t1, 0.5 h
[10] = Photostability of compound in DMSO-H2O incubated for 1 hr irradiated with deuterium lamp by absorbance based analysis; assay type: physicochemical; settings: read-out: Stability
[11] = Stability of compound in DMSO-H2O incubated for 1 hr by absorbance based analysis; assay type: physicochemical
[12] = Stability of compound in DMSO-H2O incubated for 150 mins by absorbance based analysis; assay type: physicochemical; settings: 2.5 h
[13] = Antioxidant activity of compound in presence of ROS; assay type: functional
[14] = Antioxidant activity of compound in presence of RNS; assay type: functional
[15] = Antioxidant activity of compound in presence of RSS; assay type: functional
[16] = Antioxidant activity of compound in presence of Ca2+; assay type: functional
[17] = Antioxidant activity of compound in presence of Fe3+; assay type: functional
[18] = Antioxidant activity of compound in presence of NH4+; assay type: functional
[19] = Antioxidant activity of compound in presence of HSO3-; assay type: functional
[20] = Antioxidant activity of compound in presence of SO4; assay type: functional
[21] = Antioxidant activity of compound in presence of CO3; assay type: functional
[22] = Antioxidant activity of compound in presence of HCO3-; assay type: functional
[23] = Antioxidant activity of compound in presence of Cl-; assay type: functional
[24] = Antioxidant activity of compound in presence of Br-; assay type: functional
[25] = Antioxidant activity of compound in presence of H2O2-; assay type: functional
[26] = Antioxidant activity of compound in presence of ClO-; assay type: functional
[27] = Antioxidant activity of compound in presence of OH; assay type: functional
[28] = Antioxidant activity of compound in presence of TBHP; assay type: functional
[29] = Antioxidant activity of compound in presence of ONOO-; assay type: functional
[30] = Antioxidant activity of compound in presence of NO2; assay type: functional
[31] = Antioxidant activity of compound in presence of Glutathione; assay type: functional
[32] = Antioxidant activity of compound in presence of L-Cysteine; assay type: functional
[33] = Antioxidant activity of compound in presence of HCHO; assay type: functional
[34] = Antioxidant activity of compound in presence of […]; assay type: functional
[35] = Drug accumulation in BALB/c mouse tumor implanted with mouse 4T1 cells assessed as increase in fluorescence intensity at 0.5 mg/kg, iv measured at 48 hrs by imaging based analysis; assay type: ADME, organism-based, Neoplasm; settings: in vivo
[36] = Drug accumulation in BALB/c mouse tumor xenografted with human NCI-H520 cells assessed as increase in fluorescence intensity at 0.5 mg/kg, iv measured at 96 hrs by imaging based analysis; assay type: ADME, organism-based, Neoplasm; settings: in vivo
[37] = Cytotoxicity against human Primary lung fibroblast assessed as decrease in cell viability up to 5 uM incubated for 24 hrs by CCK-8 assay; assay type: toxicity, cell-based
[38] = Cytotoxicity against human Primary lung fibroblast assessed as decrease in cell viability up to 10 uM incubated for 24 hrs by CCK-8 assay; assay type: toxicity, cell-based
[39] = test system: NCI-H226; experiment: Cytotoxicity against human NCI-H226 assessed as decrease in cell viability up to 10 uM incubated for 24 hrs by CCK-8 assay; assay type: functional, cell-based
[40] = test system: NIH3T3; experiment: Cytotoxicity against mouse 3T3 cells assessed as decrease in cell viability up to 5 uM incubated for 24 hrs by CCK-8 assay; assay type: toxicity, cell-based; settings: nih3t3, 24 h
[41] = Drug uptake in human NCI-H226 cells assessed as increase in fluorescence intensity incubated for 24 hrs by fluorescence based microscopic analysis; assay type: ADME, cell-based; settings: nci-h226, 24 h
[42] = Drug localization in mitochondria of human NCI-H226 cell by MitoTracker Red based NIR confocal microscopic analysis; assay type: ADME
[43] = test system: NCI-H250; experiment: Antitumor activity against human […] cells xenografted in BALB/c mouse assessed as tumor growth inhibition 0.5 mg/kg, iv measured for 5 days; assay type: functional, organism-based; settings: time 5.0 day
[44] = test system: 4T1; experiment: Antitumor activity against mouse 4T1 cells implanted in BALB/c mouse assessed as tumor growth inhibition 5 mg/kg, iv measured for 11 days; assay type: functional; settings: 4T1, 264 h, time 11 day, read-out: TGI
[45] = Toxicity in BALB/c mouse implanted with mouse 4T1 cells assessed as survival rate at 5 mg/kg, iv measured for 11 days; assay type: organism-based; settings: in vivo, time 11 day

CCN1/C(=C/C=C2\CCCC(/C=C/C3=[N+](CCCOc4ccc(C(=O)O)cc4)c4ccccc4C3(C)C)=C2Cl)C(C)(C)c2ccccc21.[Br-]
Stable: Stability [11] | Stability [12]
~60%: inhibition in vivo at 5 mg/kg [44]
Non-toxic: Activity [37] | Activity [38]
> 80%: Activity [40]
100%: survival at 264 h [45]
6.05: logP [2]
96.9%: remaining at 1 h [10]
active: Activity [13] | Activity [14] | Activity [15] | Activity [16] | Activity [17] | Activity [18] | Activity [19] | Activity [20] | Activity [21] | Activity [22] | Activity [23] | Activity [24] | Activity [25] | Activity [26] | Activity [27] | Activity [28] | Activity [29] | Activity [30] | Activity [31] | Activity [32] | Activity [33] | Activity [34] | Activity [39] | TGI [43]
Active: Drug uptake [4] | Drug uptake [6] | Drug uptake [7] | Drug uptake [8] | Drug uptake [9] | Drug uptake [35] | Drug uptake [36] | Drug uptake [41] | Drug uptake [42]
4.34: logD [3]
> 5: Ratio [5]
170 µg/mL: solubility [1]

CCCN1/C(=C/C=C2\CCCC(/C=C/C3=[N+](CCCOc4ccc(C(=O)O)cc4)c4ccccc4C3(C)C)=C2Cl)C(C)(C)c2ccccc21.[Br-]
89.4%: remaining at 1 h [10]
4.63: logD [3]
170 µg/mL: solubility [1]
> 80%: Activity [40]
> 5: Ratio [5]
Stable: Stability [12]
active: Activity [13] | Activity [14] | Activity [15] | Activity [16] | Activity [17] | Activity [18] | Activity [19] | Activity [20] | Activity [21] | Activity [22] | Activity [23] | Activity [24] | Activity [25] | Activity [26] | Activity [27] | Activity [28] | Activity [29] | Activity [30] | Activity [31] | Activity [32] | Activity [33] | Activity [34] | Activity [39] | TGI [43]
Active: Drug uptake [4] | Drug uptake [36] | Drug uptake [41] | Drug uptake [42]
6.21: logP [2]
Not_active: Drug uptake [6] | Drug uptake [7] | Drug uptake [8] | Drug uptake [9]
Non-toxic: Activity [37] | Activity [38]
